Tests used:
[1] = system: Wnt signaling; assay: Wnt reporter assay, stable HEK293T cell line containing TOPFlash reporter, LiCl-activated; format: cell-based, human; conditions: concentration not given
Excerpt: To identify novel Wnt regulators by high throughput screening, a stable HEK293T cell line containing the TOPFlash reporter was established. To identify Wnt inhibitors that targeted molecular events downstream of β-catenin, we treated these cells with lithium chloride to inhibit GSK3 and to stabilize β-catenin. […] We also validated the results by transient transfection of Super 8× TOPFlash or 8× FOPFlash into HEK293T cells. […] Since the results from the stable and transient transfection are compatible, we used stable cell lines for all of the other experiments.
Reporter assay. Wnt reporter assay and cell staining assay have been described previously. We subcloned Super 8×TOPFlash (provided by Professor Randall Moon, University of Washington) into the pGL4.83 [hRlucP/Puro] Vector and transfected it into HEK293T cells. A stable HEK293T cell line containing the TOPFlash reporter was established using puromycin selection. To screen Wnt inhibitors that block the downstream signaling transduction pathway of β-catenin, we treated the reporter cells with 25 mM LiCl to stabilize β-catenin and activate Wnt signaling. The potential Wnt inhibitors identified from screening were validated by transfecting TOPFlash or FOPFlash plus control renilla reporters into HEK293T cells, and then treating the cells with DMSO or testing compounds in DMSO solution. The Wnt signaling was activated by LiCl or Wnt3A treatment.

[2] = system: AMPK; assay: Western blot of AMPK (T172) and ACC (S79) phosphorylation in CRC cells; format: cell-based, human; conditions: concentration not given
Procedure: Biochemistry. Western blotting: Cells were lysed in the appropriate volume of lysis buffer: 50 mM HEPES, 100 mM NaCl, 2 mM EDTA, 1% (v/v) glycerol, 50 mM NaF, 1 mM Na3VO4, 1% (v/v) Triton X-100, with protease inhibitors. The following antibodies were used: AMPK (Cell Signaling, 2532, Cell Signaling Technologies, Danver, Mass., USA), pAMPK (Cell Signaling, 2535), ACC (Cell Signaling, 3676), pACC (Cell Signaling, 11818), Actin (Sigma, A1978). Antibodies for Axin 2, c-Myc and Cyclin D1 have been described previously. ATP analysis: Cells growing in 12-well plates were treated with DMSO or inhibitors in DMSO solution and lysed by adding 1 mL boiling doubly distilled water. Supernatants were analyzed by luminescence using ATP Determination Kit (Invitrogen, A22066; Thermo Fisher Scientific, Waltham, Mass., USA).

[3] = system: purified mitochondria from mouse liver; assay: Uncoupling assay (OCR) using purified mitochondria from mouse livers; format: biochemical; conditions: 5 μM/1 μM
Procedure: All the steps were carried out at 4° C. or on ice. After mice were euthanized with CO2 followed by rapid decapitation, whole liver was quickly dissected out on a cold block and homogenized using a Teflon-glass dounce homogenizer containing isolation buffer (215 mM mannitol, 75 mM sucrose, 0.1% BSA, 20 mM HEPES, 1 mM EGTA, adjusted to pH 7.2 with KOH). The homogenate was transferred to a 2 mL-microcentrifuge tube and spun at 1,300×g for 3 min. The supernatant was transferred to a fresh 2 mL-microcentrifuge tube and spun at 13,000×g for 10 min. The supernatant was discarded, and the crude mitochondrial pellet was resuspended in a 1.5 mL-microcentrifuge tubes and pelleted again at 10,000×g for 10 min. The supernatant was discarded, and the mitochondrial pellets were resuspended in isolation buffer to obtain an approximate concentration ≥10 mg/mL of mitochondria. The absolute protein concentration was determined using a bicinchoninic acid (BCA) protein assay kit (Pierce, Cat #23,227) by recording absorbance at 560 nm on a Biotek Synergy HT plate reader (Winooski, Vt., USA).
Mitochondrial Bioenergetics Measurements. Mitochondrial bioenergetic measurements were carried out using a Seahorse XFe96 Extracellular Flux Analyzer (Agilent Technologies, Santa Clara, Calif., USA) to measure oxygen consumption rate (OCR) during various states of respiration. The OCR were measured in the presence of different substrates, inhibitors and uncouplers of the electron transport chain using previous methods with slight modifications. The stocks used for the assays were 500 mM pyruvate, 250 mM malate, and 30 mM adenosine diphosphate (ADP), and 1 M succinate (pH for all was adjusted to 7.2). […] Stock solutions of FH535, Y3, FH535-M, and Y3-M were prepared at 5 mM in 100% DMSO. As per the instructions from XFe96 Extracellular Flux kit, the sensor cartridge was hydrated with water and kept at 37° C. overnight before the experiment. One hour before the assay was conducted, water was removed from assay plates and XF calibrant was added before re-incubation. The injection ports A to D of the sensor cartridge were loaded with 25 μL of different combinations of the above substrates/inhibitors/uncouplers as follows. Before loading, the stocks were diluted appropriately in the respiration buffer (RB) (125 mM KCl, 0.1% BSA, 20 mM HEPES, 2 mM MgCl2, and 2.5 mM KH2PO4; pH 7.2) to get the final concentrations in the respiration chamber of 5 μM pyruvate, 2.5 μM malate, 10 μM of succinate and 1 μM ADP (via Port A), 1 μM oligomycin A (via Port B), 4 μM FCCP or 5 μM/1 μM FH535 or 5 μM/1 μM Y3 or 5 μM/1 μM FH535-M or 5 μM/1 μM Y3-M (via Port C) and 0.1 μM antimycin A (via Port D) starting with the initial volume of 175 μL RB in the chamber and diluting it to 9×, 10×, 11× and 12× with every injection through ports A to D, respectively. Once loaded, the sensor cartridge was placed into the Seahorse XFe96 Flux Analyzer for automated calibration. Seahorse Standard XFe96 assay plates were used for loading mitochondria. Initially total mitochondria were diluted to 6 μg/30 μL in RB and 30 μL was loaded in each well resulting in 6 μg mitochondria/well. The assay plates were centrifuged at 3,000 rpm for 4 min at 4° C. to adhere liver mitochondria at the bottom of the wells. After centrifugation, 145 μL RB (pre-incubated to 37° C.) was added without disturbing the mitochondrial layer to obtain a final volume of 175 μL per well. […]

[4] = system: Huh7 cells; assay: Western blot of autophagy markers LC3II and p62 in Huh7 cells; format: cell-based, human
Excerpt: (§1) Primary antibodies are described in Table 1.

[5] = system: Huh7 cells; assay: Cyto-ID autophagy detection assay in Huh7 cells; format: cell-based, human; conditions: Huh7, 40 h, ±50 μM CQ
Procedure: Autophagy responses were monitored with the Cyto-ID autophagy detection reagent 2.0 (Enzo Life Sciences, USA) according to the manufacturer's instructions. Huh7 and PLC/PRF/5 cells were seeded in 12-well plates and treated the following day with drugs or DMSO vehicle control at the indicated concentrations. CQ was added to the corresponding wells to a final concentration of 50 μM 8 h prior harvesting. After 40 h of drug treatment, cells were collected and assessed for viability with Zombie Violet dye solution (BioLegend, USA) followed by Cyto-ID autophagy detection reagent staining. Flow cytometry analyses were performed in a BD LSRII at the Flow Cytometry and Cell Sorting Shared Resource Facility of the University of Kentucky Markey Cancer Center and data were analyzed with the FlowJo Software version 7.6.5 (Tree Star, USA). The autophagic flux was quantified by subtracting the Cyto-ID MFI value of the sample without CQ from the Cyto-ID MFI value of the sample with CQ for each condition according to the formula: […]

[6] = system: Huh7 cells; assay: [3H]-thymidine incorporation assay, Huh7; format: cell-based, human; conditions: Huh7, 72 h
Procedure: (§2) Huh7, PLC/PRF/5 and Hep3B cells were plated in 96-well plates at 3000-4000 cells/well, treated with the concentrations indicated of FH535 or FH535-N, as single agents or in combination with sorafenib, and cultured for 72 h. ^3H-thymidine incorporation assay was performed as described previously.

[7] = system: PLC/PRF/5 cells; assay: [3H]-thymidine incorporation assay, PLC/PRF/5; format: cell-based, human; conditions: PLC/PRF/5, 72 h
Procedure: as §2

[8] = system: Hep3B cells; assay: [3H]-thymidine incorporation assay, Hep3B; format: cell-based, human; conditions: 72 h
Procedure: as §2

[9] = system: Wnt/β-catenin pathway; assay: TOP-Flash TCF4-dependent dual luciferase reporter assay in Huh7 cells; format: cell-based, human; conditions: Huh7, 10 mM LiCl
Procedure: Cells were plated at 1×10^5 cells/well in 24-well plates and transiently transfected with 490 ng of luciferase-reporter plasmid and 10 ng of phRL-TK per well using the Turbofect transfection reagent (Thermo Scientific, USA). After 5-6 h post-transfection, cells were treated with drug(s) or DMSO vehicle control for 36 h in the presence or absence of LiCl (10 mM). Luciferase assays were performed using the Dual Luciferase Assay System (Promega, USA) according to manufacturer's instructions.

[10] = system: Wnt/β-catenin target genes; assay: Expression of downstream β-catenin targets in Huh7 cells (western blot, RT-qPCR); format: cell-based, human; conditions: Huh7, 36 h
Procedure: as §1
Total RNA was extracted with miRNeasy mini kit (Qiagen, Germany), and the corresponding cDNA was produced using iScript cDNA synthesis kit (BioRad, USA) from 1 μg of total RNA. Real time quantitative PCR (RT-qPCR) was performed using SsoAdvanced Universal SYBR Green supermix (BioRad, USA) with specific primers: p62 (SQSTM1: 5′-[…]-3′ (SEQ ID NO: 1) and 5′-[…]-3′ (SEQ ID NO: 2)); c-MYC (cMYC: 5′-[…]-3′ (SEQ ID NO: 3) and 5′-[…]-3′ (SEQ ID NO: 4)), Survivin (BIRC5, 5′-[…]-3′ (SEQ ID NO: 5) and 5′-[…]-3′ (SEQ ID NO: 6)), AXIN 2 (AXIN2: 5′-[…]-3′ (SEQ ID NO: 7) and 5′-[…]-3′ (SEQ ID NO: 8)), Cyclin D1 (5′-CCND1: […]-3′ (SEQ ID NO: 9) and 5′-[…]-3′ (SEQ ID NO: 10)), and b2-microglobulin (B2M: 5′-[…]-3′ (SEQ ID NO: 11) and 5′-[…]-3′ (SEQ ID NO: 12)). Transcript levels were normalized to β-actin or […] level as indicated using the ΔΔCt method.

[11] = system: Huh7 cells; assay: Annexin V/PI apoptosis assay, Huh7; format: cell-based, human; conditions: Huh7, 48 h
Procedure: (§3) Apoptosis assay was performed in Huh7 and PLC/PRF/5 cells treated 48 h with DMSO vehicle control or the indicated doses of FH535, FH535-N alone or in combination with sorafenib. Cells were harvested and stained with the APC Annexin V apoptosis detection kit with PI (BioLegend, USA) according to the manufacturing instructions followed by flow cytometry analysis. Flow cytometry data was acquired with an LSRII instrument (BD-Biosciences) and analyzed with FlowJo software (Tree Star).

[12] = system: PLC/PRF/5 cells; assay: Annexin V/PI apoptosis assay, PLC/PRF/5; format: cell-based, human; conditions: PLC/PRF/5, 48 h
Procedure: as §3

[13] = system: Huh7 cells; assay: Seahorse mitochondrial stress test (OCR) in Huh7 cells; format: cell-based, human; conditions: Huh7, 24 h
Procedure: Oxygen Consumption Rates (OCR) were measured on an XF-96 Extracellular Flux Analyzer (Seahorse Bioscience) using the protocol and conditions optimized for HCC cells as previously described by our group. Briefly, the experiments were performed by seeding 10,000 and 20,000 Huh7 cells per well in XFe 96 well-plates 36 h before the experiment. Cells were treated for 24 h with FH535, FH535-N or vehicle control. In OCR experiments the media was supplemented with 25 mM Glucose and 1 mM Pyruvate just before the assay. After minimal incubation time (˜20-30 min in non-CO2 37° C. incubator) mitochondrial stress test was initiated. […] All reagents used in the Seahorse experiments were purchased from Sigma-Aldrich. Analyses of data were performed with Wave 2.2 software (Seahorse Bioscience), Excel (Microsoft Office 2013) and Prism 7.0 (GraphPad Software).

O=[N+]([O-])c1ccc(NS(=O)(=O)c2cc(Cl)ccc2Cl)c2ccccc12 [Y3, 2,5-dichloro-N-(4-nitronaphthalen-1-yl)benzenesulfonamide]
inhibition of Wnt signaling [1]: inhibited Wnt signaling | AMPK activation [2]: strongly activated AMPK | uncoupling: OCR blocked by oligomycin [3]: increased OCR in dose-dependent manner | accumulation of LC3II in the presence of CQ (autophagic flux, ΔLC3II) ([4]; Huh7, 50 μM CQ 8 h): reduced at higher doses | LC3II protein levels ([4]; Huh7, 40 h): increased | p62 protein levels ([4]; Huh7, 40 h): increased | autophagic flux (Cyto-ID) [5]: reduction in the autophagic flux | cell proliferation (3H-thymidine incorporation) [6]: inhibited cell proliferation | cell proliferation (3H-thymidine incorporation) [7]: inhibited cell proliferation | cell proliferation (3H-thymidine incorporation) [8]: inhibited cell proliferation | Wnt/β-catenin transcriptional activity (TOP-Flash) [9]: reduced the Wnt/β-catenin transcriptional activity | expression of downstream Wnt/β-catenin target genes [10]: reduced | apoptosis (Annexin V/PI) [11]: significant increased rate of apoptosis | apoptosis (Annexin V/PI) [12]: significant increased rate of apoptosis | Proton Leak [13]: enhanced Proton Leak
